Results as given in patent publication US9637459B2, “Sodium and calcium salts of dihydroquinazoline derivative and use thereof as antiviral agents” (AiCuris GmbH & Co. KG, priority 2012, dated 2017).
≈ marks a conversion by molar mass, not a printed value. Where two headings read alike, the source gives them in different places.

Tests used:
HCMV AD169 RV-HG = assay: HCMV fluorescence-reduction test (GFP-RA) in NHDF cells; assay type: cell-based, human cytomegalovirus; conditions: read-out: EC50 (GFP-RA)
Experimental: The in vitro effects of the compositions according to the present invention on the replication of the HCMV (human cytomegalovirus) can be seen in the following antiviral assay:
HCMV Fluorescence-Reduction Test.
The test compositions are used as a 50-millimolar (mM) solution in dimethyl sulphoxide (DMSO). Ganciclovir®, Foscarnet® or Cidofovir® can be used as reference compositions. One day before the beginning of the test, 1.5×10^4 human foreskin fibroblasts (NHDF cells)/well are seeded in 200 μl of cell culture medium in Wells B2-G11 of 96-well plates (black with transparent floor). The wells along the edges of each 96-well plate are filled with 200 μl of medium only in order to prevent edge effects. On the day of the test the cell culture medium in Wells B2-G11 of each 96-well plate is vacuumed off by a suction device and replaced with 100 μl of virus suspension (multiplicity of infection (MOI): 0.1-0.2). The virus used is a recombinant HCMV which has integrated an expression cassette for green fluorescence protein (GFP) in the virus genome (HCMV AD 169 RV-HG [E. M. Borst, K. Wagner, A. Binz, B. Sodeik, and M. Messerle, 2008, J. Virol. 82:2065-2078.]). After an incubation time of 2 h at 37° C. and 5% CO2, the virus inoculate is vacuumed off by a suction device and all wells, with the exception of the wells in Column 3, are filled with 200 μl of cell culture medium. Column 2 is not treated further and serves as a virus control. The wells in Column 3 are each filled with 300 μl of test substance (diluted in cell culture medium) for duplicate analysis. The concentration of the respective antiviral substance in Column 3 is ˜27 times as concentrated as the respective anticipated EC50 value. […] The GFP intensity of each well in a 96-well plate is then determined using a fluorescence scanner (FluoBox; Bayer Technology Services GmbH; filter settings: GFP, […], Em 520 nm). The measured values thus obtained can be used to determine the EC50 of an anti-HCMV: […]

[1] = Solubility measurement of saturated solution in phosphate buffer (HPLC); assay type: physicochemical
Experimental: In order to determine the solubility, a saturated solution of the salt from Example 2 was prepared in phosphate buffer at pH 7.0 and shaken at room temperature for 2 hours. The suspensions obtained were filtered by means of a syringe filter (0.45 μm pore diameter) and after being diluted the clear solutions were measured by HPLC. Pure phosphate buffer was used as the blank sample. The solubility was calculated in terms of the absorption of a reference solution of the amorphous zwitterion in phosphate buffer.

[2] = Human betaherpesvirus 5, AD169, NHDF, 168 h

| Compound | EC50 (HCMV AD169 RV-HG; virus strain AD169 RV-HG, human foreskin fibroblasts (NHDF cells), 7 days incubation, 50% reduction of GFP fluorescence) | Solubility in buffer ([1]; pH 7) | EC50 (HCMV AD169 RV-HG; [2]) | solubility at 2 h ([1]; aqueous buffer, thermodynamic from solid, phosphate buffer pH 7.0, room temperature, shaken 2 hours, filtered 0.45 μm, HPLC) |
| --- | --- | --- | --- | --- |
| COc1cccc(N2CCN(C3=Nc4c(F)cccc4[C@H](CC(=O)[O-])N3c3cc(C(F)(F)F)ccc3OC)CC2)c1.O.O.O.[Na+] [Example 2, 3-hydrate of the monosodium salt of (S)-{8-fluoro-2-[4-(3-methoxyphenyl)piperazine-1-yl]-3-[2-methoxy-5-(trifluoromethyl)phenyl]-3,4-dihydroquinazoline-4-yl}acetic acid] | 3.9 nM | >91.7 mg/mL | – | – |
| COc1cccc(N2CCN(C3=Nc4c(F)cccc4[C@H](CC(=O)O)N3c3cc(C(F)(F)F)ccc3OC)CC2)c1 [Example 6A, (S)-{8-fluoro-2-[4-(3-methoxyphenyl)piperazine-1-yl]-3-(2-methoxy-5-trifluoromethyl-phenyl)-3,4-dihydroquinazoline-4-yl}acetic acid] | – | – | 3.4 nM | 0.4 mg/mL (≈ 699 µM) |
| Nc1nc(O)c2ncn(COC(CO)CO)c2n1 [Ganciclovir, reference compound] | – | – | 2200 nM | – |
